From ChEMBL document CHEMBL4813924, “Isolation and Pharmacological Characterization of Six Opioidergic Picralima nitida Alkaloids” (J Nat Prod, 2021) come the findings set out here.

Calls of active or inactive are those of the source. No cut-off for these calls is given here.

Test [1] deals with Mus musculus. The experiment in a line: Antinociceptive activity against C57Bl/6N mouse model of thermal-induced nociception at 10 mg/kg, sc measured at 50 mins by tail-flick test. Type of test: functional, organism-based.
Test [2] concerns Mus musculus. Kind of test: Antinociceptive activity against C57Bl/6N mouse model of thermal-induced nociception at 30 mg/kg, sc measured at 30 mins by tail-flick test. In kind it is functional, organism-based.
The target of test [3] is T1, Kappa-type opioid receptor (Homo sapiens, UniProt P41145). Kind of test: Displacement of [3H]-U69593 from human kappa opioid receptor expressed in U2OS cells by radioligand binding assay. Type of test: cell-based.
The target in test [4] is Mu-type opioid receptor (Mus musculus, UniProt P42866). Kind of test: Agonist activity at mouse HA-tagged mu opioid receptor expressed in HEK293 cells assessed as inhibition of forskolin-induced cAMP production preincubated for 20 mins followed by forskolin stimulation and measured after 15 mins by Glo-sensor reagent based assay. In kind it is functional, cell-based.
Test [5] addresses T2, Delta-type opioid receptor (Homo sapiens, UniProt P41143). The experiment in a line: Displacement of [3H]-DPDPE from human delta opioid receptor expressed in CHO-K1 cells by radioligand binding assay. In kind it is cell-based.
In test [6] the target is T3, Mu-type opioid receptor (Homo sapiens, UniProt P35372). Kind of test: Displacement of [3H]-DAMGO from human mu opioid receptor expressed in CHO-K1 cells by radioligand binding assay. In kind it is cell-based.
In test [7] the target is Mu-type opioid receptor (Mus musculus) (UniProt P42866). Kind of test: Agonist activity at mouse HA-tagged mu opioid receptor expressed in HEK293 cells assessed as inhibition of forskolin-induced cAMP production preincubated for 20 mins followed by forskolin stimulation and measured after 15 mins by Glo-sensor reagent based assay relative to DAMGO. As to conditions: filed as agonist. In kind it is functional, cell-based. Details: scale not given: the % may be the effect or the level left.

Test [8] concerns the target Delta-type opioid receptor (Mus musculus) (UniProt P32300). The experiment in a line: Agonist activity at mouse FLAG-tagged delta opioid receptor expressed in HEK293 cells assessed as inhibition of forskolin-induced cAMP production preincubated for 20 mins followed by forskolin stimulation and measured after 15 mins by Glo-sensor reagent based assay relative to Leu-Enk. In kind it is functional, cell-based. Details: scale not given: the % may be the effect or the level left. The note with it: filed as agonist.

Test [9] has as its target Delta-type opioid receptor (Mus musculus, UniProt P32300). The experiment in a line: Agonist activity at mouse FLAG-tagged delta opioid receptor expressed in HEK293 cells assessed as inhibition of forskolin-induced cAMP production preincubated for 20 mins followed by forskolin stimulation and measured after 15 mins by Glo-sensor reagent based assay. In kind it is functional, cell-based.

The subject of test [10] is Mus musculus. Kind of test: Antinociceptive activity against C57Bl/6N mouse model of thermal-induced nociception at 3 mg/kg, sc measured at 110 mins by hot-plate test. In kind it is functional, organism-based.
Test [11] concerns Mus musculus. The experiment in a line: Antinociceptive activity against C57Bl/6N mouse model of thermal-induced nociception at 6 mg/kg, sc measured at 30 mins by tail-flick test. Type of test: functional, organism-based.
The test system of test [12] is Mus musculus. Kind of test: Antinociceptive activity against C57Bl/6N mouse model of thermal-induced nociception at 6 mg/kg, sc measured at 30 mins by hot-plate test. In kind it is functional, organism-based.
In test [13] the target is T1, Kappa-type opioid receptor. Kind of test: Displacement of [3H]-U69593 from kappa opioid receptor (unknown origin) expressed in HEK cells at 10 uM. Type of test: cell-based. As to conditions: filed as agonist.
The target in test [14] is T4, D(1B) dopamine receptor (Homo sapiens, UniProt P21918). Kind of test: Displacement of [3H]-SCH23390 from dopamine D5 receptor (unknown origin) expressed in HEK-293T cells at 10 uM. Type of test: cell-based.
In test [15] the target is Kappa-type opioid receptor (Mus musculus) (UniProt P33534). The experiment in a line: Agonist activity at mouse FLAG-tagged kappa opioid receptor expressed in HEK293 cells assessed as inhibition of forskolin-induced cAMP production preincubated for 20 mins followed by forskolin stimulation and measured after 15 mins by Glo-sensor reagent based assay relative to U50488. In kind it is functional, cell-based. Details: scale not given: the % may be the effect or the level left. The note with it: filed as agonist.

Test [16] addresses Sodium-dependent serotonin transporter (Homo sapiens) (UniProt P31645). The experiment in a line: Displacement of [3H]-citalopram from SERT (unknown origin) expressed in HEK cells at 10 uM relative to control. In kind it is cell-based.
Test [17] addresses T2, Delta-type opioid receptor. Kind of test: Displacement of [3H]-DADLE from delta opioid receptor (unknown origin) expressed in HEK cells at 10 uM. Type of test: cell-based. As to conditions: filed as agonist.
The target of test [18] is T1, Kappa-type opioid receptor. Kind of test: Agonist activity at human kappa opioid receptor expressed in U2OS cells assessed as beta-arrestin2 recruitment incubated for 90 mins by PathHunter assay relative to U50488. In kind it is functional, cell-based.
Test [19] concerns the target T4, D(1B) dopamine receptor. Kind of test: Displacement of [3H]-SCH23390 from dopamine D5 receptor (unknown origin) expressed in HEK-293T cells assessed as inhibition constant. In kind it is cell-based.
Test [20] has as its target Histamine H3 receptor (Homo sapiens) (UniProt Q9Y5N1). Kind of test: Displacement of [3H]-alpha-methylhistamine from histamine H3 receptor (unknown origin) expressed in Flp-In-293 cells at 10 uM relative to control. Type of test: cell-based.
Test [21] has as its target T3, Mu-type opioid receptor. Kind of test: Displacement of [3H]-DAMGO from mu opioid receptor (unknown origin) expressed in HEK cells at 10 uM. In kind it is cell-based.
For test [22], the target named is Kappa-type opioid receptor (Mus musculus, UniProt P33534). The experiment in a line: Agonist activity at mouse FLAG-tagged kappa opioid receptor expressed in HEK293 cells assessed as inhibition of forskolin-induced cAMP production preincubated for 20 mins followed by forskolin stimulation and measured after 15 mins by Glo-sensor reagent based assay. In kind it is functional, cell-based.

Test [23] concerns the target T1, Kappa-type opioid receptor. Kind of test: Agonist activity at human kappa opioid receptor expressed in U2OS cells assessed as beta-arrestin2 recruitment incubated for 90 mins by PathHunter assay. Type of test: functional, cell-based.

T4 sequence (P21918 whole entry): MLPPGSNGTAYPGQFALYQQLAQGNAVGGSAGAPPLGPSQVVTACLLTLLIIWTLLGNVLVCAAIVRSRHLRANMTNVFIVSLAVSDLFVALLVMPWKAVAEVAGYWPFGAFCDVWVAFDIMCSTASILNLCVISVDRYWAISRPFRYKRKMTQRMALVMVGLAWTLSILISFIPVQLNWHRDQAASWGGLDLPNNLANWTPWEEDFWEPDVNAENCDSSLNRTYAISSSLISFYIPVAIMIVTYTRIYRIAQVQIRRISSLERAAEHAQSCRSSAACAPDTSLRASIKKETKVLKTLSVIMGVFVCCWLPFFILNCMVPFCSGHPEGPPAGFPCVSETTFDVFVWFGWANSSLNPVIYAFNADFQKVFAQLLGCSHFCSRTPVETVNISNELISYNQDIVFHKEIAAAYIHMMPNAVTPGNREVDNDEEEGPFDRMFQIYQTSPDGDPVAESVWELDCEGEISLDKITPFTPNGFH
T1 sequence (P41145 whole entry): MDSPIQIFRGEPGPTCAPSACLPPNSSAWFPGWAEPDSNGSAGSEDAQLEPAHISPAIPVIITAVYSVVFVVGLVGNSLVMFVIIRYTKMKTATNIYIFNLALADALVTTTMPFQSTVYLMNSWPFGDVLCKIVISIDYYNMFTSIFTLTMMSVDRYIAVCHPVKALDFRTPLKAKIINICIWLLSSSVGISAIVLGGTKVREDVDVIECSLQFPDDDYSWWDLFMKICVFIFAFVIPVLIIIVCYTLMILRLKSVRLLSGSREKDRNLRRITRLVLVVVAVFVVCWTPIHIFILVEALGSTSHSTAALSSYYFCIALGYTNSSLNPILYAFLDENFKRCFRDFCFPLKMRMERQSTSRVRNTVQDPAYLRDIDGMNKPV
Chain of Kappa-type opioid receptor (Mus musculus, UniProt P33534) (P33534 whole entry): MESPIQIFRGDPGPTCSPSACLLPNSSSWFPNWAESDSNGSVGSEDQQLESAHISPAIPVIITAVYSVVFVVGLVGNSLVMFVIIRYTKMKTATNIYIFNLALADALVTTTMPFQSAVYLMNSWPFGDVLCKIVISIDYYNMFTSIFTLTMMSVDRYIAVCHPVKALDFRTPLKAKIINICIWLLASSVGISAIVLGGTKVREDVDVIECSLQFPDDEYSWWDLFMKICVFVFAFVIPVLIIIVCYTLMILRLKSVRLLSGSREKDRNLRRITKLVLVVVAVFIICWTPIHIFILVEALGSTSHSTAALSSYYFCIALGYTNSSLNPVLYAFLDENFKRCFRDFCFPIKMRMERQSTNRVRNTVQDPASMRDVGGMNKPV
Chain of Kappa-type opioid receptor (Mus musculus) (P33534 whole entry): as above
Chain of Sodium-dependent serotonin transporter (Homo sapiens) (P31645 whole entry, looked up): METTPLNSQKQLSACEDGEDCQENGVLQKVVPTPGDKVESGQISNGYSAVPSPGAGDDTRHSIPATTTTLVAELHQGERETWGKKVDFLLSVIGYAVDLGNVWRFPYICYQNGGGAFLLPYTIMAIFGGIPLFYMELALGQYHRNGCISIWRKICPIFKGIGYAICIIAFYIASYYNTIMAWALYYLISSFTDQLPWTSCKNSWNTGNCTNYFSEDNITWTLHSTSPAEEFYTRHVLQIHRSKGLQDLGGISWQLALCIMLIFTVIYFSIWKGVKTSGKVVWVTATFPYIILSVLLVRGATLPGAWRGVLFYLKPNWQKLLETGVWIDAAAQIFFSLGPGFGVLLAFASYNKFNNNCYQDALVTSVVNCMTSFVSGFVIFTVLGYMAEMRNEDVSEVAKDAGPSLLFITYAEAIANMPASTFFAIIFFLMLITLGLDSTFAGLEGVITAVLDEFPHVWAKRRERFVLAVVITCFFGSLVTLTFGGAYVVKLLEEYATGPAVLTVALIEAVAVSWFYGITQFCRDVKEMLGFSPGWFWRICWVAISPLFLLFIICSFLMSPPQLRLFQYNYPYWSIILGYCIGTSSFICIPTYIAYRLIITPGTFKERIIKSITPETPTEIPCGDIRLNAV
Chain of Histamine H3 receptor (Homo sapiens) (Q9Y5N1 whole entry): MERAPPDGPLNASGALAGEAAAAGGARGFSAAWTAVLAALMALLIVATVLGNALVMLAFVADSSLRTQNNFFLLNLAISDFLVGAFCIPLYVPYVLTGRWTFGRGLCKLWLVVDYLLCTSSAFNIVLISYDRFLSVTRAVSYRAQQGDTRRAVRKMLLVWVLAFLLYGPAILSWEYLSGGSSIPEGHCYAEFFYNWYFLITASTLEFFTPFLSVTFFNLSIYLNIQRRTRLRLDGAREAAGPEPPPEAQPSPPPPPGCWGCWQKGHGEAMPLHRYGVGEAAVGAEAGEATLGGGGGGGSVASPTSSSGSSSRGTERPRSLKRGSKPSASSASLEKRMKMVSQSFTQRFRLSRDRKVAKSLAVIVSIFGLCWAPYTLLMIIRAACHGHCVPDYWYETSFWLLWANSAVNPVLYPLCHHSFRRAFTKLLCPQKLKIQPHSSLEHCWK
T3 sequence (P35372 whole entry): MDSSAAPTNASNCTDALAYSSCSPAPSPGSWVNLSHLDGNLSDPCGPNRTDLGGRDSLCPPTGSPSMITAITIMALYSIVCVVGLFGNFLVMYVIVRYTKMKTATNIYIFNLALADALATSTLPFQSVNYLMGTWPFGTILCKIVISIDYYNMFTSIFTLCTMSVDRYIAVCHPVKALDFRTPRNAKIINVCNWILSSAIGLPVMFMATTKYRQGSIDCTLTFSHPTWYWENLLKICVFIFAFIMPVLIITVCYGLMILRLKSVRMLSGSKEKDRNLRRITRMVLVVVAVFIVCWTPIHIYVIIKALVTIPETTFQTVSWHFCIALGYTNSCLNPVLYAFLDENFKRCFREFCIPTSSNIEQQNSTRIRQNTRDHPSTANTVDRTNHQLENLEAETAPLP
Chain of Delta-type opioid receptor (Mus musculus, UniProt P32300) (P32300 whole entry): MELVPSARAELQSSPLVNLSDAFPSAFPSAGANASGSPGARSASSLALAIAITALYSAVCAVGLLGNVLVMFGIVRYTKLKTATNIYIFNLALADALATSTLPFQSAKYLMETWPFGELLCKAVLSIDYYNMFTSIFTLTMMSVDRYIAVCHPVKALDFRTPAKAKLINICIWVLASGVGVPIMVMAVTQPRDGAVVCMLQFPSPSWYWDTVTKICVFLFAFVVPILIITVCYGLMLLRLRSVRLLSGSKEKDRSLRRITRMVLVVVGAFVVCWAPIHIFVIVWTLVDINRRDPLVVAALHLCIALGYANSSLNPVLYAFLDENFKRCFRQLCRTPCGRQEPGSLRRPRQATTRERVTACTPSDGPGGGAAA
Chain of Delta-type opioid receptor (Mus musculus) (P32300 whole entry): as above
Chain of Mu-type opioid receptor (Mus musculus) (P42866 whole entry): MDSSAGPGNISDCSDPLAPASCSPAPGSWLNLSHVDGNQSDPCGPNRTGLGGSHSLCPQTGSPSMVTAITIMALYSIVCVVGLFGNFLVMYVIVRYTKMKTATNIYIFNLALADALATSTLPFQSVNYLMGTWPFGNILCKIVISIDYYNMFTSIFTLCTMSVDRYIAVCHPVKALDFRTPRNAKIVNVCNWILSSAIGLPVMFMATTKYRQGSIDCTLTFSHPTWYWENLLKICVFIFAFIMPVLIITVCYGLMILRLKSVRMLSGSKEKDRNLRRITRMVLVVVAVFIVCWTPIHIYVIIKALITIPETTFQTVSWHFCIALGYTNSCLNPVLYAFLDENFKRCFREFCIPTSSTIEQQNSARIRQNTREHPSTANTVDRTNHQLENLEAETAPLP
Chain of Mu-type opioid receptor (Mus musculus, UniProt P42866) (P42866 whole entry): as above
T2 sequence (P41143 whole entry): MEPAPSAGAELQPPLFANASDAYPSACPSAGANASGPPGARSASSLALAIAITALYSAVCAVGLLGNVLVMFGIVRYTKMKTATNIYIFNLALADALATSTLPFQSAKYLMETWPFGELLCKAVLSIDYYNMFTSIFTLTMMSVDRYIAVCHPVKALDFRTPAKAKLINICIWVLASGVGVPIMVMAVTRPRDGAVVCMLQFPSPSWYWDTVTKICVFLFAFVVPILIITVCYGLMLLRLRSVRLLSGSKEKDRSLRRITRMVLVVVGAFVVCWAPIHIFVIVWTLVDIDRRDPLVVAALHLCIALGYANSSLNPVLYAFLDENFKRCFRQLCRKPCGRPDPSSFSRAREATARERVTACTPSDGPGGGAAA

For `C/C=C1/CN2[C@H]3Cc4c([nH]c5ccccc45)[C@@H]2C[C@@H]1[C@]3(CO)C(=O)OC`, the result in the test with Mus musculus [1] and in the test with Mus musculus [2] was Active. The Ki in [3] was found to be 14200 nM; in test [5] it was 15 µM; at Mu-type opioid receptor [6], 0.32 µM. Moreover, the IC50 at Mu-type opioid receptor [4] stood at 3.14 µM; in [9] (read-out: IC50), 15.4 µM. In addition, the Activity in [7] stood at 94%; in [8] it was 90%. Also, in the test with Mus musculus [10], the outcome was inactive.

As to `CN1CC[C@]23c4c5ccc(O)c4O[C@H]2[C@@H](O)C=C[C@H]3[C@H]1C5`, the outcome in the test with Mus musculus [11] and in the test with Mus musculus [12] was Active.

Consider `C/C=C1/CN2CC[C@]34C(=Nc5ccccc53)[C@@H]2C[C@@H]1[C@@]4(COC(C)=O)C(=O)OC`, for which the inhibition entry (in [13]; on D(1B) dopamine receptor [14]; in test [17]) was “Active” each time. Moreover, the Activity in test [15] is 92%; in test [18], 30%; in test [7] it was 50%; in test [8], 90%. The inhibition in test [16] and in test [20] was below 60% throughout. Moreover, the inhibition constant (Ki) was 1110 nM in test [3], 60.3 µM in test [5], 30.7 µM at Mu-type opioid receptor [6] and above 10 µM at D(1B) dopamine receptor [19]. The IC50 at Mu-type opioid receptor [4] is 18.7 µM; in test [9] (read-out: IC50), 24.4 µM; in test [22] it was 2710 nM. Besides, the inhibition result on Mu-type opioid receptor [21] was “inactive”.

Take `C/C=C1/CN2[C@@H]3C[C@@]45c6ccccc6N[C@]4(O3)[C@@H]2C[C@@H]1[C@@]5(COC(C)=O)C(=O)OC`: the inhibition entry (in test [13]; at D(1B) dopamine receptor [14]; in test [17]) was “Active” each time. Further, the Activity in test [15] was 92%. Moreover, the inhibition in [16] and in [20] was below 60% in each case. The Ki in test [3] was 2380 nM; in test [5] it was 98.8 µM; on Mu-type opioid receptor [6] it was 132 µM; at D(1B) dopamine receptor [19] it was above 10 µM. Besides, the IC50 at Mu-type opioid receptor [4] amounted to 45 µM; in test [22] it was 1970 nM. In addition, the inhibition entry at Mu-type opioid receptor [21] is “inactive”.

For `C/C=C1/CN2CC[C@@]34c5cc(O)ccc5N(C)[C@]35OC[C@@]4(C(=O)OC)[C@H]1C[C@H]25`, the inhibition result at D(1B) dopamine receptor [14] is “Active”. For the same compound, the inhibition in test [16] and in test [20] was below 60% each time. In addition, the inhibition constant Ki in [5] was 10.4 µM; on D(1B) dopamine receptor [19], above 10 µM. For the same compound, the IC50 turned out to be 20.3 µM in test [9] (read-out: IC50) and 73 nM in test [22].

For the compound `C/C=C1/CN2CC[C@]34C(=C(C(=O)OC)[C@H]1C[C@H]23)Nc1ccccc14` [AKUAMMICINE], the inhibition result (in [13]; at D(1B) dopamine receptor [14]; in test [17]; on Mu-type opioid receptor [21] (filed as agonist)) was “Active” throughout. For the same compound, the Activity in [15] stood at 84%; in [18] (filed as agonist), 50%; in [7], 45%; in [8], 60%. For the same compound, the inhibition in [16] and in test [20] was below 60% in each case. Moreover, the inhibition constant (Ki) was 89 nM in test [3], 23.2 µM in test [5], 3.31 µM at Mu-type opioid receptor [6] and above 10 µM on D(1B) dopamine receptor [19]. Also, the IC50 on Mu-type opioid receptor [4] was 8.24 µM; in test [9] (read-out: IC50), 12.4 µM; in [9] (read-out: pIC50 (converted)), 12.6 µM; in test [22], 240 nM. Moreover, the EC50 in [23] was 39.8 µM.

Consider `C/C=C1/CN2CC[C@@]34c5ccccc5N(C)[C@]35OC[C@@]4(C(=O)OC)[C@H]1C[C@H]25`, for which the inhibition result at D(1B) dopamine receptor [14] was “Active”. Moreover, the inhibition in [16] and in test [20] was below 60% throughout. Further, the values for the inhibition constant (Ki) (in test [5]; at D(1B) dopamine receptor [19]) were 8.37 µM and above 10 µM, respectively. Besides, the IC50 in test [9] (read-out: IC50) was determined as 95.6 µM; in [22] it was 6460 nM.
